This test concerns Connaught BCG within primary CD14+ human monocytes. Format: cell-based.

Regarding PACMA-31 [reference compound], the “effect of PDIA1 inhibitor on GzmA-mediated mycobacterial inhibition, BCG” value (PACMA-31 200 nM or Rutin 50 μM pretreatment combined with GzmA-WT) was “enhanced mycobacterial inhibitory activity”. The “intracellular bacterial burden, PDIA1 inhibitor alone” value (PACMA-31 200 nM or Rutin 50 μM, 30 min pretreatment, no GzmA) is recorded as “did not influence the intracellular bacterial burden”.
